Values after ≈ are worked out from the molar mass of the structure shown.
Experiments:
[1] = system: Mycobacterium tuberculosis; test: Antimycobacterial activity against Mycobacterium tuberculosis H37Ra ATCC 25197 assessed as inhibition of bacterial cell growth incubated for 7 days by resazurin microtiter assay; assay type: functional; details: H37Ra ATCC 25197, 168 h
[2] = Cytotoxicity in African green monkey Vero cells assessed as reduction in cell viability incubated for 72 hrs by MTT assay; assay type: cell-based; details: chlorocebus sabaeus
[3] = Selectivity index, ratio of CC50 for African green monkey Vero cells to MIC for antimycobacterial activity against Mycobacterium tuberculosis H37Ra ATCC 25197; assay type: toxicity; details: read-out: Selectivity Index
[4] = system: Mycobacterium tuberculosis; test: Antimycobacterial activity against Mycobacterium tuberculosis H37Rv ATCC 27294 assessed as inhibition of bacterial cell growth incubated for 7 days by resazurin microtiter assay; assay type: functional; details: H37Rv ATCC 27294, 168 h

SMILES	MIC [1] [µM]	CC50 at 72 h [2] [mM]	selectivity ratio [3]	MIC [4] [µM]
COC(=O)/C=C1\Nc2ccccc2OC1=O	18 (≈ 3.95 µg/mL)	> 2.28	> 125	4.5 (≈ 0.986 µg/mL)
COC(=O)/C=C1\Nc2cc(Cl)ccc2OC1=O	63 (≈ 16 µg/mL)	1.63	26	31 (≈ 7.86 µg/mL)
COC(=O)/C=C1\Nc2ccc(Cl)cc2OC1=O	7.9 (≈ 2 µg/mL)	1.6	202	3.9 (≈ 0.989 µg/mL)
O=C1Oc2ccccc2N/C1=C\C(=O)c1ccccc1Cl	13 (≈ 3.9 µg/mL)	1.57	118	–
O=C1Nc2ccccc2O/C1=C\c1ccccc1	270 (≈ 64.1 µg/mL)	–	–	–
O=C1Oc2ccccc2N/C1=C\C(=O)c1ccc(-c2ccccc2)cc1	12 (≈ 4.1 µg/mL)	> 0.366	> 30	–
COC(=O)/C=C1\Nc2ccccc2OC1O (stereo unspecified)	289 (≈ 63.9 µg/mL)	–	–	–
COC(=O)/C=C1\Nc2ncccc2OC1=O	> 217	–	–	–
O=C1Oc2ccccc2N/C1=C\C(=O)c1c[nH]c2ccccc12	6.5 (≈ 1.98 µg/mL)	> 1.64	> 250	3.3 (≈ 1 µg/mL)
O=C1Oc2ccccc2N/C1=C\C(=O)c1cccs1	7.3 (≈ 1.98 µg/mL)	> 1.84	> 250	14.7 (≈ 3.99 µg/mL)
Cc1ccccc1C(=O)/C=C1\Nc2ccccc2OC1=O	14 (≈ 3.91 µg/mL)	> 1.79	> 125	–
O=C1Nc2ccccc2O/C1=C\c1ccccc1Cl	238 (≈ 64.7 µg/mL)	–	–	–
Cc1ccc(C(=O)/C=C2\Nc3ccccc3OC2=O)cc1	14 (≈ 3.91 µg/mL)	1.65	115	–
O=C1Oc2ccccc2N/C1=C\C(=O)N1CCOCC1	7.3 (≈ 2 µg/mL)	1.14	155	7.3 (≈ 2 µg/mL)
COC(=O)/C=C1\Nc2cc(-c3ccccc3)ccc2OC1=O	145 (≈ 42.8 µg/mL)	–	–	–
O=C(NNC(=O)c1ccncc1)C(=O)Nc1ccccc1O	0.42 (≈ 0.126 µg/mL)	1.41	3380	3.3 (≈ 0.991 µg/mL)

SMILES	MIC [1] [µM]	CC50 at 72 h [2] [mM]	selectivity ratio [3]	MIC [4] [µM]
COC(=O)/C=C1/Oc2ccccc2NC1=O	291 (≈ 63.8 µg/mL)	–	–	–
O=C1Oc2ccccc2N/C1=C\C(=O)c1ccc(Cl)cc1	13 (≈ 3.9 µg/mL)	1.25	94	–
O=C(NNC(=O)c1ccncc1)C(=O)Nc1ccc(Cl)cc1O	0.75 (≈ 0.251 µg/mL)	1.17	1560	3.1 (≈ 1.04 µg/mL)
O=C1Oc2ccccc2N/C1=C\C(=O)c1ccccc1	15 (≈ 3.98 µg/mL)	> 0.942	> 62	–
CN1C(=O)/C(=C/c2ccccc2Cl)Oc2ccccc21	224 (≈ 64 µg/mL)	–	–	–
COC(=O)/C=C1\Nc2cc3ccccc3cc2OC1=O	> 238	–	–	–
O=C1/C(=C/c2ccccc2)Oc2ccccc2N1Cc1ccccc1	196 (≈ 64.2 µg/mL)	–	–	–
O=C1Oc2ccccc2N/C1=C\C(=O)c1ccncc1	15 (≈ 3.99 µg/mL)	> 1.88	> 125	–
Cc1cccc(C(=O)/C=C2\Nc3ccccc3OC2=O)c1	14 (≈ 3.91 µg/mL)	> 1.79	> 125	–
COC(=O)CC1Nc2ccccc2OC1=O (stereo unspecified)	36 (≈ 7.96 µg/mL)	1.55	43	–
O=C1/C(=C/c2ccccc2Cl)Oc2ccccc2N1Cc1ccccc1	177 (≈ 64 µg/mL)	–	–	–
O=C1Oc2ccccc2N/C1=C\C(=O)c1cccc(Cl)c1	13 (≈ 3.9 µg/mL)	1.61	120	–
CN1C(=O)/C(=C/c2ccccc2)Oc2ccccc21	127 (≈ 31.9 µg/mL)	–	–	–
O=C(NNC(=O)c1ccncc1)C(=O)Nc1cc(Cl)ccc1O	0.37 (≈ 0.124 µg/mL)	1.2	3320	3.1 (≈ 1.04 µg/mL)
NNC(=O)c1ccncc1 [ISONIAZID]	0.91 (≈ 0.125 µg/mL)	> 7.3	> 8000	1.8 (≈ 0.247 µg/mL)
